Source: patent US8372612B2, “Production of four carbon alcohols using improved strain” (Butamax(TM) Advanced Biofuels LLC, priority 2007, dated 2013)
Read-outs that look alike come from different tables or passages of the source.

Legend:
[1] = system: mutant spoT DPD1848 line as compared to wild type EC100; assay type: cell-based, E. coli; settings: for % improved spoT growth over wt: approximately 18 hours, spoT mutant percent growth minus wild type percent growth
Protocol: Kinetic growth studies were performed for the DPD1848 and the control (EC100) using the Bioscreen C Automated Microbial Growth Curve Analyis System (Oy Growth Curves Ab Ltd., Helsinki, Finland), which is an automated 96 well plate system, that monitors growth of many cultures simultaneously, each in a volume of 150 μl. Overnight triplicate cultures of each strain were grown and diluted (1:10) into either LB or LB freshly supplemented with 0.2%, 0.3%. 0.4% or 0.6% 1-butanol (w/v). The growth of each culture was followed for approximately 18 hours. The triplicates were averaged and plotted in FIG. 3 as the final 18 hour time point, normalized to EC100, and given as the percent growth inhibition relative to the no butanol control for each strain.
An additional kinetic growth study was performed as described above. The data is shown in FIG. 4 plotted as OD600 over time for the DPD1848 spoT mutant (A), and wild type (B, EC100).
A Bioscreen experiment, as described in Example 3, was used to compare growth of the mutant spoT DPD1848 line as compared to wild type EC100 in the following chemicals:
The growth of each culture was followed for approximately 18 hours. Triplicate samples were averaged, and expressed as the percent growth relative to the no chemical control for each strain. The data given in Table 8 is represented as percent growth improvement of the spoT mutant relative to wild type, which is the spoT mutant percent growth minus the wild type percent growth for each challenge.

[2] = system: DPD1850 (spoT), DPD1848 (spoT), DPD1865 (rpoZ) and the EC100 control; settings: 0.5% (w/v) 1-butanol; LB, 37° C.; FIG. 2
Protocol: After a further 2 hr incubation at 37° C. with shaking, 200 μl samples were transferred to a microtiter plate and optical density at A600 recorded. The microtiter plate was moved to a platform shaker that was located within a plastic box that is in a 37° C. incubator.

[3] = system: rpoZ insertion line (JW3624) and wild type BW25113; settings: 0.4% 1-butanol; FIG. 5
Source text: The growth points of triplicate cultures were averaged and plotted in FIG. 5 as absorbance at OD600.

[4] = system: rpoZ::kan line JW3624 and wild type control BW25113; settings: 0.4 and 0.6% 1-butanol; FIG. 8
Protocol: Cultures were grown in LB medium containing 0%, 0.4% or 0.6% 1-butanol in shake flasks. The experiments were performed by inoculating 100 ml of medium in a 250 ml plastic flask with 2 ml of an overnight culture grown from a single colony grown at 37° C. and incubating with shaking for approximately two doubling times (1 hour), to an OD600 between 0.2 and 0.3. Each culture was split into five 25 ml cultures in plastic screw top 125 ml flasks and the cultures were maintained at 37° C. in a shaking water bath at 200 rpm. The OD600 was monitored at 0, 30, 90, 120 190, and 260 minutes.
In the cultures above, a final time point was taken at 18 hr and used to calculate growth yield as a function of 1-butanol challenge. For each line grown in 0, 0.4% or 0.6% 1-butanol, the final 18 hour time point was divided by the no 1-butanol 18 hr time point.

E. coli strain EC100 = settings: LB agar, closed chamber, 37° C., 1 day
Protocol: LB agar media supplemented with butanol was prepared fresh one day before innoculating at an appropriate volume and cooled for 2 hours in a 50° C. water bath. LB agar plates supplemented with butanol were prepared by dispensing 67 mls of melted agar, using a peristaltic pump and sterile Nalgene tubing, into sterile Omni trays with lids (Nunc mfg no. 242811). […] The plates were allowed to cool and set for approximately an hour before they were stored overnight in closed anaerobic chambers at room temperature in the chemical/biological hood. The next morning, the chambers harboring the plates were opened and allowed to air dry for approximately 1 hour before using.
Plates were incubated in a closed chamber at 37° C. for 1 day. The number of colonies arising and their sizes were scored. […] Butanol concentrations of 0.4% and 0.6% were chosen to screen for tolerance.

[5] = system: relA::kan line (strain JW2755) and the parent BW25113; assay type: cell-based, E. coli K12
Protocol: A strain of E. coli K12 having a kanamycin marker insertion in the relA coding region (relA::kan) is available in the Keio knockout collection that is described in Example 4. Overnight cultures of the relA::kan line (strain JW2755) and the parent BW25113 were inoculated with fresh colonies and grown in LB at 37° C. with shaking. The next day the cultures were diluted 1:100 into 100 ml of fresh LB in a 1 liter flask and grown for approximately 2 hours. The culture was split into 20 ml aliquots in 125 ml plastic screw top flasks. One culture remained unaltered serving as the no add control, and various concentrations of either 2-butanol or isobutanol were added to the remaining flasks. Absorbance (OD600) was monitored over time. Using a 3 hr time point for growth in isobutanol and a 2.5 hr time point for growth in 2-butanol, fractional growth yields were determined and percent improvement was calculated by subtracting […] and multiplying by 100.

[6] = system: L. plantarum spoT mutant MS0281; assay: Growth rate in Lacto Synthetic Medium with isobutanol, spoT mutant MS0281; assay type: cell-based, Lactobacillus plantarum; settings: for Growth rate: MS0281, 30° C., LSM
Protocol: (§1) Strains MS0280 and MS0281, and Lactobacillus plantarum PN0512 (ATCC #PTA-7727), were tested for tolerance to isobutanol. The strains were streaked on semi-synthetic medium plates, pH 6 (medium composition: 10 mM ammonium sulfate, 5 mM potassium phosphate buffer, pH 6.0, 50 mM MES, pH 6.0, 2 mM MgCl2, 0.7 mM CaCl2, 50 μM MnCl2, 1 μM FeCl3, 1 μM ZnCl2, 1.72 μM CuCl2, 2.53 μM CoCl2, 2.42 μM Na2MoO4, 2 μM thiamine hydrochloride, 10 mM glucose, 0.01% casamino acids, 0.2% yeast extract and 1.5% agar), from frozen stock cultures. The plates that the two mutants (MS0280 and MS0281) were streaked onto also included chloramphenicol at 10 μg/ml. The plates were incubated overnight at 30° C. under anaerobic conditions. The next day, overnight cultures were started by inoculating Lacto Synthetic Medium (LSM; medium composition: 10 mM ammonium sulfate, 5 mM potassium phosphate buffer, pH 6.0, 50 mM MES, pH 6.0, 2 mM MgCl2, 0.7 mM CaCl2, 50 μM MnCl2, 1 μM FeCl3, 1 μM ZnCl2, 1.72 μM CuCl2, 2.53 μM CoCl2, 2.42 μM Na2MoO4, 2 μM thiamine hydrochloride, 10 mM glucose, 0.01% casamino acids and 0.2% yeast extract) with a diluted (1:6) culture with an initial OD600 of 0.02. These overnight cultures were allowed to incubate at 30° C. in a gently shaking water bath. The next morning, the overnight cultures were diluted to have an initial OD600 of 0.1, in a volume of 220 ml of LSM. These starter cultures were allowed to incubate at 30° C. in a gently shaking water bath for 1.25 hours, to ensure the cultures were not in a lag phase. At this time, 20 ml aliquots were dispensed to duplicate flasks containing different volumes of isobutanol, to give final concentrations of 0, 0.5, 1, 1.5 and 2%. The growth of each flask was followed by taking OD600 readings every hour. The natural log of the OD600 values were plotted on a linear scale vs time.

[7] = system: Lactobacillus plantarum PN0512; assay: Growth rate in Lacto Synthetic Medium with isobutanol, parental control; assay type: cell-based; settings: for Growth rate: PN0512, 30° C., LSM
Protocol: as §1

[8] = system: L. plantarum spoT mutant MS0280; assay: Growth rate in Lacto Synthetic Medium with isobutanol, spoT mutant MS0280; assay type: cell-based, Lactobacillus plantarum; settings: for Growth rate: MS0280, 30° C., LSM
Protocol: as §1

CCC(C)=O [MEK, methyl ethyl ketone]
% improved spoT growth over wt ([1]; chemical at 2.50% (w/v)): 0%
% improved spoT growth over wt ([1]; chemical at 3% (w/v)): 3.1%
% improved spoT growth over wt ([1]; chemical at 3.50% (w/v)): 4.3%
% improved spoT growth over wt ([1]; chemical at 4% (w/v)): 33.5%

CCCCO [1-butanol]
Growth of spoT and rpoZ lines relative to EC100 (difference between 4 and 2 hr time points) [2]: improved growth
Butanol tolerant phenotype of rpoZ insertion line (OD600 growth) [3]: butanol tolerant phenotype was seen
Growth yield of rpoZ mutant versus wild type (18 hr time point divided by no 1-butanol 18 hr time point) [4]: higher growth yields than wild type
Tolerance of spoT mutant versus wild type strain in terms of growth rate ([1]; all concentrations of 1-butanol tested (0.2%, 0.3%, 0.4%, 0.6% w/v), FIG. 4): more tolerant
% improved spoT growth over wt ([1]; chemical at 0.2% (w/v)): 11.4%
% improved spoT growth over wt ([1]; chemical at 0.3% (w/v)): 13.8%
% improved spoT growth over wt ([1]; chemical at 0.4% (w/v)): about 16.5%
% improved spoT growth over wt ([1]; chemical at 0.4% (w/v), listed as 1-BuOH): 16.5%
% improved spoT growth over wt ([1]; chemical at 0.6% (w/v)): 9.7%
Concentration at which only pinpoint colonies were seen (E. coli strain EC100): 0.6%
Concentration from which colonies were progressively smaller (E. coli strain EC100): ≥ 0.2%
Concentrations at which no colony formation was observed after overnight incubation (E. coli strain EC100): ≥ 0.7 % (w/v)

CCC(C)O (stereo not drawn) [2-butanol]
Percent improvement of fractional growth yield of relA mutant relative to the parent ([5]; 0.6% 2-butanol, 2.5 hr time point, FIG. 10B): small improvement
Percent improvement of fractional growth yield of relA mutant relative to the parent ([5]; 0.8% 2-butanol, 2.5 hr time point, FIG. 10B): small improvement
% improved spoT growth over wt ([1]; chemical at 0.80% (w/v)): about 7%
% improved spoT growth over wt ([1]; chemical at 0.80% (w/v), listed as 2-BuOH): 7.2%
% improved spoT growth over wt ([1]; chemical at 1.20% (w/v)): 0%
% improved spoT growth over wt ([1]; chemical at 1.40% (w/v)): 0%
% improved spoT growth over wt ([1]; chemical at 1.60% (w/v)): 0%

CCC(C)=O [2-butanone]
% improved spoT growth over wt ([1]; chemical at 3% (w/v)): about 3%

CC(C)CO [isobutanol]
Percent improvement of fractional growth yield of relA mutant relative to the parent ([5]; 0.8% isobutanol, 3 hr time point, FIG. 10A): small improvement
% improved spoT growth over wt ([1]; chemical at 0.80% (w/v)): about 13.5%
% improved spoT growth over wt ([1]; chemical at 0.80% (w/v), listed as IsoBuOH): 13.5%
% improved spoT growth over wt ([1]; chemical at 1.20% (w/v)): 12.1%
% improved spoT growth over wt ([1]; chemical at 1.40% (w/v)): 11.4%
% improved spoT growth over wt ([1]; chemical at 1.60% (w/v)): 10.7%
Growth rate ([6]; isobutanol concentration 0.5%): 0.467 μ/hour
Growth rate ([6]; isobutanol concentration 1%): 0.426 μ/hour
Growth rate ([6]; isobutanol concentration 1.5%): 0.397 μ/hour
Growth rate ([6]; isobutanol concentration 2%): 0.359 μ/hour
Growth rate inhibition ([6]; the mutants (MS0281), 0.5% isobutanol, growth rates in presence and absence of isobutanol compared): 5%
Growth rate ([7]; isobutanol concentration 0.5%): 0.424 μ/hour
Growth rate ([7]; isobutanol concentration 1%): 0.385 μ/hour
Growth rate ([7]; isobutanol concentration 1.5%): 0.364 μ/hour
Growth rate ([7]; isobutanol concentration 2%): 0.349 μ/hour
Growth rate inhibition ([7]; the parent (PN0512), 0.5% isobutanol, growth rates in presence and absence of isobutanol compared): 9%
Growth rate ([8]; isobutanol concentration 0.5%): 0.464 μ/hour
Growth rate ([8]; isobutanol concentration 1%): 0.426 μ/hour
Growth rate ([8]; isobutanol concentration 1.5%): 0.382 μ/hour
Growth rate ([8]; isobutanol concentration 2%): 0.359 μ/hour
Growth rate inhibition ([8]; the mutants (MS0280), 0.5% isobutanol, growth rates in presence and absence of isobutanol compared): 5%
